Measurements reported in the kinase profiling compilation of Christmann-Franck et al. (2016).

Columns and labels:
Assay in all cases: radiometric filter-binding kinase assay, Kinase HotSpot
Conditions in all cases: compound 0.5 µM; ATP 10 µM
[1] = target: PRKCH (human) (UniProt P24723)
[2] = target: CDK3 CCNE1 (human) (UniProt Q00526+P24864)
[3] = target: CDK2 CCNE1 (human) (UniProt P24941+P24864)
[4] = target: LTK (human) (UniProt P29376)
[5] = target: CDK2 CCNA2 (human) (UniProt P24941+P20248)
Sequence of CDK2 CCNA2 (human) (P20248 whole entry, looked up, other chains not shown): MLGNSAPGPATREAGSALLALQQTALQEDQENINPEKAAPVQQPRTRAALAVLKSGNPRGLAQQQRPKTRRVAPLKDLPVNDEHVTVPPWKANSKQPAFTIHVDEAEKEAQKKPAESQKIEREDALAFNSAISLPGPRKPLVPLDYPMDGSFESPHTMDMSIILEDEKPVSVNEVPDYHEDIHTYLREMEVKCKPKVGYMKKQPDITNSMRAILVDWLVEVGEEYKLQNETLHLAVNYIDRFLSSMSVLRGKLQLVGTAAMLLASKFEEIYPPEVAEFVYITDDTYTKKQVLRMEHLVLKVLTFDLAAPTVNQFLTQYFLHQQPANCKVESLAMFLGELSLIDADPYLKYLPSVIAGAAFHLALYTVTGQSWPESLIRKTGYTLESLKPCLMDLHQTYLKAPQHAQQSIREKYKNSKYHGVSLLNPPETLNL

[6] = target: CDK1 CCNA2 (human) (UniProt P06493+P20248)
Sequence of CDK1 CCNA2 (human) (P06493 whole entry, looked up): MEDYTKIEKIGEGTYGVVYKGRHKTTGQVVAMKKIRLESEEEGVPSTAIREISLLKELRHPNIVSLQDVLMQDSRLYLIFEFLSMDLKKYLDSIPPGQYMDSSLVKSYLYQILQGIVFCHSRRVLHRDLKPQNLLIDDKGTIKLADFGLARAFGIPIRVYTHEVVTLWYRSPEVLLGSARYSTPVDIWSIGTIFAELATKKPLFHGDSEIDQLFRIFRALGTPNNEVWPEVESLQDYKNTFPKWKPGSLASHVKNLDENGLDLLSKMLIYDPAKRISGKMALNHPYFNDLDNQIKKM
Sequence of CDK1 CCNA2 (human) (P20248 whole entry, looked up): as the sequence (P20248 whole entry, looked up, other chains not shown) above

[7] = target: DYRK1B (human) (UniProt Q9Y463)
Sequence of DYRK1B (human) (Q9Y463 whole entry, looked up): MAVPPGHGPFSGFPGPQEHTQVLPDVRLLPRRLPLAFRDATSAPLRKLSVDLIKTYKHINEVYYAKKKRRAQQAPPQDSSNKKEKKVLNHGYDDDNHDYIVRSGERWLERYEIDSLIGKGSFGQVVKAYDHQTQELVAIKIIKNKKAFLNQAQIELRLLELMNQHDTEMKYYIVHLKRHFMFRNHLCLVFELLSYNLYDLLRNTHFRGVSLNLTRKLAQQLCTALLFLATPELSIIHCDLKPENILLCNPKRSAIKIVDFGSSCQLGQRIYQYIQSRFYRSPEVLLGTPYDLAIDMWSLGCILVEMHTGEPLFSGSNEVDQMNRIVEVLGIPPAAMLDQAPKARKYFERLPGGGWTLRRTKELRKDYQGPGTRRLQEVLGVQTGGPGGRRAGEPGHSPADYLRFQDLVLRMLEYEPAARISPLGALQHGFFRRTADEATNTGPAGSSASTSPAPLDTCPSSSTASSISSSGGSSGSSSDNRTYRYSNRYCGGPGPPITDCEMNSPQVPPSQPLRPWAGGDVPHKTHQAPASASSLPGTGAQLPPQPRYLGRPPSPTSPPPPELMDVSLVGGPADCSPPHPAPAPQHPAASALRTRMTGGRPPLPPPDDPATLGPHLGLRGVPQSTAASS

[8] = target: STK33 (human) (UniProt Q9BYT3)
Sequence of STK33 (human) (Q9BYT3 whole entry, looked up): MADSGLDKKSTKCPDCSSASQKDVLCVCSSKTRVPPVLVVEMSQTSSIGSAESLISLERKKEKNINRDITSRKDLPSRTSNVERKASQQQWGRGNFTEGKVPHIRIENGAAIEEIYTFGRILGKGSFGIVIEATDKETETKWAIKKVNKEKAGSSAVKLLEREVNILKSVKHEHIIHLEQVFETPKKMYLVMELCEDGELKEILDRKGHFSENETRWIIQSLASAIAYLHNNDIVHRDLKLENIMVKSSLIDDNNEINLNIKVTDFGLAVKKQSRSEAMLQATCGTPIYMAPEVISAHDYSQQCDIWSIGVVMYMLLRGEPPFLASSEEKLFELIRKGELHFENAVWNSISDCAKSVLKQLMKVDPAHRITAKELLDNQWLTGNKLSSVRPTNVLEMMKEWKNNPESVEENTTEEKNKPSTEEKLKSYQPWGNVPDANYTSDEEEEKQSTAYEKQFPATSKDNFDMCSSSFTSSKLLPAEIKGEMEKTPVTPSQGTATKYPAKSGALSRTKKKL

[9] = target: FYN (human) (UniProt P06241)
[10] = target: CDK1 CCNB1 (human) (UniProt P06493+P14635)
Sequence of CDK1 CCNB1 (human) (P06493 whole entry, looked up): as the sequence (P06493 whole entry, looked up) above
Sequence of CDK1 CCNB1 (human) (P14635 whole entry, looked up): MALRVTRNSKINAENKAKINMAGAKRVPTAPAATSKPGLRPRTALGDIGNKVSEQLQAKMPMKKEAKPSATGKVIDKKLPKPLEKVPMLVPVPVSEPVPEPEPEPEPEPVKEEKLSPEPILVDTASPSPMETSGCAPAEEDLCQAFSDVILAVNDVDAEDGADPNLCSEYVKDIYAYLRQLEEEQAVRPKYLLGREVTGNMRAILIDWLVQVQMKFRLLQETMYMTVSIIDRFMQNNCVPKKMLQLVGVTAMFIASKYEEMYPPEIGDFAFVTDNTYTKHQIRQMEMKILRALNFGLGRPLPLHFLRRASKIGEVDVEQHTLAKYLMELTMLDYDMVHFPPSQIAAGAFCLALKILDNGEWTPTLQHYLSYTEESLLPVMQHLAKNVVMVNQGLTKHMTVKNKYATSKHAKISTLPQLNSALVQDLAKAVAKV

[11] = target: CSNK1A1 (human) (UniProt P48729)
[12] = target: CDK5 CDK5R1 p35 (human) (UniProt Q00535+Q15078)
[13] = target: CDK9 CCNK (human) (UniProt O75909+P50750)
[14] = target: CDK6 CCND3 (human) (UniProt P30281+Q00534)
[15] = target: CDK7 CCNH MNAT1 (human) (UniProt P50613+P51948+P51946)
[16] = target: CDK4 CCND1 (human) (UniProt P24385+P11802)
[17] = target: CDK5 CDK5R1 p25 (human) (UniProt Q00535+Q15078)
[18] = target: CDK4 CCND3 (human) (UniProt P30281+P11802)
[19] = target: CDK9 CCNT1 (human) (UniProt P50750+O60563)
[20] = target: CDK6 CCND1 (human) (UniProt Q00534+P24385)
[21] = target: MAP3K7 TAB1 (human) (UniProt O43318+Q15750)

Sequence of LTK (human) (P29376 whole entry, looked up): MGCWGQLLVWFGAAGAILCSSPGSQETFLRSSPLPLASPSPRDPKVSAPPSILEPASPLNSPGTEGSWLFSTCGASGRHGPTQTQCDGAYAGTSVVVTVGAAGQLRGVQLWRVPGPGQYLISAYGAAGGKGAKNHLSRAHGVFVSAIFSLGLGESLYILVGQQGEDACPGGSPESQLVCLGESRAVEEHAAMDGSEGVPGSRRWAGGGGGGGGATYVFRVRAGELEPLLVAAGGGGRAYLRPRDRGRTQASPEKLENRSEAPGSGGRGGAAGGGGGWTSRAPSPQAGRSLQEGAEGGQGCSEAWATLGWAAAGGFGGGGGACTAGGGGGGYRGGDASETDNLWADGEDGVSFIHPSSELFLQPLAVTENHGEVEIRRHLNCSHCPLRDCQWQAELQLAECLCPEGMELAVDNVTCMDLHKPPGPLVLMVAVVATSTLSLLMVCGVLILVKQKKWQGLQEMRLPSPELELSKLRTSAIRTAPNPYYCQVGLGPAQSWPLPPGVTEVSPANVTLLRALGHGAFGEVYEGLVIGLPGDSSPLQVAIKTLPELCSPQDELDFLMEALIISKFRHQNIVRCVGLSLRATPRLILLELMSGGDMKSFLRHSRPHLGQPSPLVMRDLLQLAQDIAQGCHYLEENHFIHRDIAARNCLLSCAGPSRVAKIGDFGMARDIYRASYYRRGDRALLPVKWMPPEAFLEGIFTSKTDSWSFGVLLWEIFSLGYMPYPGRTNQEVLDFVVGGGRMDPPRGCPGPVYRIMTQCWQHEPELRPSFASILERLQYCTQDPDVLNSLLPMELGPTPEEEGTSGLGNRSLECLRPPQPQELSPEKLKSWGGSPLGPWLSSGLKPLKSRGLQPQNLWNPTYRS
Sequence of PRKCH (human) (P24723 whole entry, looked up): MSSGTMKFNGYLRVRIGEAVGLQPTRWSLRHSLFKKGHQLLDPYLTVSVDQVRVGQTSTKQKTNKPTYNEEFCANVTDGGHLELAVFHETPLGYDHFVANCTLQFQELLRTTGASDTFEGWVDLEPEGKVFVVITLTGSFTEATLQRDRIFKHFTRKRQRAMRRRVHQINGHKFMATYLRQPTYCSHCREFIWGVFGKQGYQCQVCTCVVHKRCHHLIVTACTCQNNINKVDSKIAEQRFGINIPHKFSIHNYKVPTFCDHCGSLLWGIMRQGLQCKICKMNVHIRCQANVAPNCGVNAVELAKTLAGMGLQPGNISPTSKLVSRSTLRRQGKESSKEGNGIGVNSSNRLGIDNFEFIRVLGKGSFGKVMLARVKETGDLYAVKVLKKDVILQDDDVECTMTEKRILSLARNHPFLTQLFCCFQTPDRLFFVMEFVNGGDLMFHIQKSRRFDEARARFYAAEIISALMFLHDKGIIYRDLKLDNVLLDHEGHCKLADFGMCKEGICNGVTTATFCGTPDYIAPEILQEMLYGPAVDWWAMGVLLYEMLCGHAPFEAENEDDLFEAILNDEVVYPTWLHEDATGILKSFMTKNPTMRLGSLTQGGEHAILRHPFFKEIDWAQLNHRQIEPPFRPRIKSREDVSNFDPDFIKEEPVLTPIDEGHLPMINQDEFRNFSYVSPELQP
Sequence of CDK3 CCNE1 (human) (P24864 whole entry, looked up): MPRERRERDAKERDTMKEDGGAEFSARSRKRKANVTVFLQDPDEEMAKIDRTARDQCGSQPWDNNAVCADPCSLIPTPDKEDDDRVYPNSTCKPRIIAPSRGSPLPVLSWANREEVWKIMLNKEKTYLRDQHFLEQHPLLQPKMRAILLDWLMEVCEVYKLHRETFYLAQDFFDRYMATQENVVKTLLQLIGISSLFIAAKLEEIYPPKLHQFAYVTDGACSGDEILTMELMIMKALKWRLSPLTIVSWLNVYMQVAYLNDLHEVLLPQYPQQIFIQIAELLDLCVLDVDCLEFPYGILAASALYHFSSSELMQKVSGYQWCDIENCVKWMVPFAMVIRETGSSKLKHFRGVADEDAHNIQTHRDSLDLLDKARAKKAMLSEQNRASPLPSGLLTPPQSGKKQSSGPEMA
Sequence of CDK3 CCNE1 (human) (Q00526 whole entry, looked up): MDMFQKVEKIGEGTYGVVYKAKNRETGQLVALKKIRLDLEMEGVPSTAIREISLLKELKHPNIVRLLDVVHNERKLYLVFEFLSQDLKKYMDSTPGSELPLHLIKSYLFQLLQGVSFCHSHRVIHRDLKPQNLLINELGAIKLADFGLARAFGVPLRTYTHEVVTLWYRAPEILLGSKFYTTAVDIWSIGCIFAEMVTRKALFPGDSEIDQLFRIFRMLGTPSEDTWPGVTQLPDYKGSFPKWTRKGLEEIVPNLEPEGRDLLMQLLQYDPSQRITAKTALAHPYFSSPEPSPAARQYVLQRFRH
Sequence of CDK2 CCNE1 (human) (P24864 whole entry, looked up, other chains not shown): as the sequence (P24864 whole entry, looked up) above

| Compound | residual activity [1] | residual activity [2] | residual activity [3] | residual activity [4] | residual activity [5] | residual activity [6] | residual activity [7] | residual activity [8] | residual activity [10] | residual activity [12] | residual activity [13] | residual activity [14] | residual activity [15] | residual activity [16] | residual activity [17] | residual activity [18] | residual activity [19] | residual activity [20] | other results |
| --- | --- | --- | --- | --- | --- | --- | --- | --- | --- | --- | --- | --- | --- | --- | --- | --- | --- | --- | --- |
| O=C1c2ccccc2-[n+]2ccc3c([nH]c4ccccc43)c21 | 87.1% | 80.1% | 80.3% | 121% | 72.4% | 68% | 98.7% | 101% | – | – | – | – | – | – | – | – | – | – | – |
| COc1cc(OC)c(/C=C2\C(=O)Nc3ccccc32)c(OC)c1 | 82.2% | – | – | 95.3% | 96.3% | 103% | 99% | 89.5% | 83% | – | – | – | – | – | – | – | – | – | residual activity [9]: 100%; residual activity [11]: 59.6% |
| NC(=O)c1ccc2[nH]c(-c3ccc(Oc4ccc(Cl)cc4)cc3)nc2c1 | 93.4% | – | – | – | – | – | – | – | – | – | – | – | – | – | – | – | – | – | – |
| Cc1ccc(NC(=O)c2ccc(CN3CCN(C)CC3)cc2)cc1Nc1nccc(-c2cccnc2)n1 | – | 97.5% | – | 100% | – | – | 97.9% | – | 103% | 103% | 103% | 103% | 101% | 97.5% | 98.1% | 107% | 100% | 99% | – |
| c1cc(-c2cnn3cc(-c4ccc(OCCN5CCCCC5)cc4)cnc23)ccn1 | 95% | 89.9% | 77.5% | 95.4% | 87.7% | 92.2% | 26.2% | 37.4% | 79.3% | 67.7% | 36.7% | 14.8% | 83.7% | 35.3% | 68.2% | 60.7% | 65% | 21.2% | residual activity [21]: 49.7% |
| NC(=O)Nc1sc(-c2ccc(F)cc2)cc1C(N)=O | 83.5% | – | – | – | – | – | – | – | – | – | – | – | – | – | – | – | – | – | – |
